Experiments:
[1] = in vivo; cited from earlier work
[2] = test system: TRPV1; assay: Whole cell patch clamp electrophysiology of TRPV1 conductance; format: cell-based
Text: FIG. 25C provides data on the functional effects of terpenes at the nociceptive ion channel TRPV1.

Row | Structure (SMILES) | side effects [1] | TRPV1 conductance [2]
1 | CN1C[C@H](C(=O)N[C@]2(C)O[C@@]3(O)[C@@H]4CCCN4C(=O)[C@H](Cc4ccccc4)N3C2=O)C=C2c3cccc4[nH]cc(c34)C[C@H]21 [ergotamine] | nausea, vomiting and cardiovascular side effects | 
2 | C=CC(=C)CCC=C(C)C [myrcene] |  | activate TRPV1 conductance
